Source: PubChem BioAssay (NCI)
Values joined by “and” are separate entries in the source; they are usually repeats but may differ in a detail not shown here. Identical values can stand only once.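 96-well plates; 48 h exposure; 5 concentrations. Endpoints by linear interpolation between flanking doses. Not reached: highest tested concentration assigned. GI50: concentration for 50% inhibition of growth. TGI: concentration producing complete growth inhibition.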

Tested on: MDA-MB-468 breast
Assay: inhibition of tumour cell growth, NCI panel, 48 h

SMILES | GI50 | TGI
c1ccc(-c2nc(-c3ccccn3)nc(-c3ccccn3)n2)nc1 | 30400 nM | 99.1 µM
CCSC1=NC2C(N(CC)C(=O)N2CC)N1/N=C/C=C/c1ccccc1[N+](=O)[O-] (stereo not drawn) | 100 nM | –
Nc1ncn([C@@H]2S[C@H](CO)[C@@H](O)[C@@H]2F)c(=O)n1 | > 100000 nM | > 100 µM
O=C1OCC2=C1C(c1cccc(F)c1)c1cc3c(cc1N2CCO)OCO3 (stereo not drawn) | 1120 nM | > 50 µM
CCOC(=O)Oc1c(OC)cc(C(=O)c2ccc(OC)c(O)c2OC)cc1OC | 2650 nM | > 100 µM
N#C[Se]Cc1cc(-c2ccccc2)n(-c2ccc(S(N)(=O)=O)cc2)n1 | 1590 nM | 3.47 µM
Cc1c2cnccc2c(C)c2c1c1cc(C#N)ccc1n2C | 228 nM | 0.741 µM
Cc1ccc2cnc(N)c(C#Cc3cc(C(=O)Nc4ccc(CN5CCN(C)CC5)c(C(F)(F)F)c4)cnc3C)c2c1 | 932 nM | 2.08 µM
COc1cc(C)ccc1C(=O)c1ccc(C)cc1OC | 1390 nM | > 100 µM
O=C(NCC1CC1)c1ccc(-c2cccc(C(=O)NC3CC3)c2)cc1 | > 25000 nM | > 25 µM
CCCCN(CCCC)Cc1cc(Nc2ccnc3cc(Cl)ccc23)ccc1O | 4940 nM | > 100 µM
C=C1CCC2C3(C)COC(C)(C)OC3CCC2(C)C1C/C=C1/C(=O)OCC1OC(C)=O (stereo not drawn) | 1440 nM | 3.06 µM
Nc1nc2ccc(-c3nc4ccc5[nH]ncc5c4c4c3CCC4)cc2s1 | 182 nM | 4.36 µM
CN1CCC(CNc2cc(C3(C(=O)Nc4cc(C(=O)Nc5ccc(Cl)c(C(F)(F)F)c5)ccc4F)CC3)ncn2)CC1 | 1830 nM | 4.41 µM
O=C(Nc1cccc(Cl)c1)Nn1cnnc1 | > 50000 nM | > 50 µM
Cn1ncc(-c2ccc3c(=O)[nH]nc(CN)c3c2)c1-c1c(F)c(Cl)cc(OC2CC2)c1C#N | 11700 nM and 10200 nM | 24.8 µM and 22.5 µM
COc1cccc(-c2nc3cc(NC(=O)c4ccc(Cl)c(C#N)c4)ccc3o2)c1 | 1600 nM | 3.44 µM
